Publication PMC3071879 (Journal of the American Chemical Society, 2011)

Key:
Type in all cases: biochemical
[1] = target: T1, PacW (Streptomyces coeruleorubidus, UniProt F5BFC7); assay: ATP-[…]PPi exchange; settings: adenylation, DL mixture used
T1 sequence (F5BFC7 1-507): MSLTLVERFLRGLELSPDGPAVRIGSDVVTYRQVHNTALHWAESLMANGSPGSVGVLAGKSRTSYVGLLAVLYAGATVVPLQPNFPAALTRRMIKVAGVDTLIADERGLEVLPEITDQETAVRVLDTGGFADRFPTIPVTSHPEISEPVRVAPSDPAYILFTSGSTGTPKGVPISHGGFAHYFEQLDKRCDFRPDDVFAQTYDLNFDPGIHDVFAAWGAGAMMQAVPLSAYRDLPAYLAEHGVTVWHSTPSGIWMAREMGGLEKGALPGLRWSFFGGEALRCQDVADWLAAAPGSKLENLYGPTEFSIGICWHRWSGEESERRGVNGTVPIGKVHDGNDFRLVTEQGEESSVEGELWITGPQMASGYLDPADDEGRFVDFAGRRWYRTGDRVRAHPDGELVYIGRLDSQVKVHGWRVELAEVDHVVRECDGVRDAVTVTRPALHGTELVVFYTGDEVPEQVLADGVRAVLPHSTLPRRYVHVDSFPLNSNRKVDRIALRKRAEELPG

[2] = target: T2, PacP (Streptomyces coeruleorubidus, UniProt E2EKP8); assay: ATP-[…]PPi exchange; settings: adenylation
T2 sequence (E2EKP8 1-848): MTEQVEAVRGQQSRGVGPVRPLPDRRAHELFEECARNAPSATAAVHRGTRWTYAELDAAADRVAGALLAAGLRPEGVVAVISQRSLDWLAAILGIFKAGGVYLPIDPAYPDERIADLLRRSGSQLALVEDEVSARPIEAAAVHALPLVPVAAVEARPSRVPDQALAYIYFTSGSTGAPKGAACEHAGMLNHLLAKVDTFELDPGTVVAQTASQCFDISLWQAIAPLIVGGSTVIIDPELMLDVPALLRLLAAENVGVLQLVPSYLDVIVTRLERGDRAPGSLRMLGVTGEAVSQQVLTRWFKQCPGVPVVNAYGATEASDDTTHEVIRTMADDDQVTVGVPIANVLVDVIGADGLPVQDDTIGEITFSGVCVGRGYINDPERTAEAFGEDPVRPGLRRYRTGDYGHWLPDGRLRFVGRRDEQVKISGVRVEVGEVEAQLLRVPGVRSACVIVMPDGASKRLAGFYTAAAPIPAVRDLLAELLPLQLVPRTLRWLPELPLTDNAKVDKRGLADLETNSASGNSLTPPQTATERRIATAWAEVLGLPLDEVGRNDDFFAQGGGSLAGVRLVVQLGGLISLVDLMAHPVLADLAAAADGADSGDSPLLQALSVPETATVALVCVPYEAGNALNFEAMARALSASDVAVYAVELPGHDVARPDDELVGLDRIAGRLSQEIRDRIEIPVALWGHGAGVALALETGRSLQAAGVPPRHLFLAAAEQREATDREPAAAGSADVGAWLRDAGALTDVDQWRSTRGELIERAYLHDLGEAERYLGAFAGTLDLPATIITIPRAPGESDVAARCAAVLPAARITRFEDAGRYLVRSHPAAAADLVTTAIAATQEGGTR

[3] = target: T3, PacU (Streptomyces coeruleorubidus, UniProt E2EKQ3); assay: ATP-[…]PPi exchange; settings: adenylation
T3 sequence (E2EKQ3 1-507): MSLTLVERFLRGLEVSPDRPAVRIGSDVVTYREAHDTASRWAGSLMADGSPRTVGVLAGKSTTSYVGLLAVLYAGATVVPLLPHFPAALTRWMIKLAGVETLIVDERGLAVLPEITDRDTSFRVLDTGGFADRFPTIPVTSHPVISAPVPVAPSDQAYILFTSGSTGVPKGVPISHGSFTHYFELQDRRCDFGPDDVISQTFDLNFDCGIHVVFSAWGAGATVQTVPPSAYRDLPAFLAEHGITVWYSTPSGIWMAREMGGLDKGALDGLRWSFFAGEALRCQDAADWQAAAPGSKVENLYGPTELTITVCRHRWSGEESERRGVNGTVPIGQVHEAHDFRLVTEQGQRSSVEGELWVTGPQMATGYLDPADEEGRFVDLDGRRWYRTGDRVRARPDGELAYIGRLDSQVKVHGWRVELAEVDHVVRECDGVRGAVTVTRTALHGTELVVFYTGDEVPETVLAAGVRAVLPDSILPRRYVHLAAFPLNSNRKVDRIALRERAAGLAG

[4] = target: PacV (Streptomyces coeruleorubidus, UniProt E2EKQ4); assay: SDS-PAGE autoradiography of […]-methyl transfer; settings: methyl acceptor DABA tethered to holo-PacP; labelled compound
PacV, sequence (E2EKQ4 1-250): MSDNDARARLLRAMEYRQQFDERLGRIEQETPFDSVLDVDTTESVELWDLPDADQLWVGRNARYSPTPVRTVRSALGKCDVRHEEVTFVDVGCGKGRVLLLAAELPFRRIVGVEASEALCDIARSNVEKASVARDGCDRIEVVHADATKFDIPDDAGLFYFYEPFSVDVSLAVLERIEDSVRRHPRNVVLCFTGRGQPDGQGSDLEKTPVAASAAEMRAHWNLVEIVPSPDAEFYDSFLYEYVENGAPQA

SMILES: NC(Cc1cccc(O)c1)C(=O)O (racemic) [m-Tyr]
- ATP-[32P]PPi exchange [1]: demonstrated a strong preference for the activation of m-Tyr over other aromatic amino acids

SMILES: C[C@H](N)[C@H](N)C(=O)O [2S,3S-DABA]
- ATP-[32P]PPi exchange [2]: PacP exhibited a preference toward reversible formation of 2S,3S-DABA-AMP

SMILES: C[C@H](N)C(=O)O [L-Ala]
- ATP-[32P]PPi exchange [3]: exhibited a strong preference toward reversible formation of L-Ala-AMP

SMILES: C[S+](CC[C@H](N)C(=O)O)C[C@H]1O[C@@H](n2cnc3c(N)ncnc32)[C@H](O)[C@@H]1O (stereo partly shown) [S-adenosylmethionine]
- SDS-PAGE autoradiography of 14C-methyl transfer [4]: PacV indeed transferred the methyl group from S-adenosylmethionine (SAM) to holo-PacP
